Measurements taken from patent US9815878B2, “Use of PEDF-derived polypeptides for preventing and/or ameliorating skin aging” (MacKay Memorial Hospital, priority 2012, dated 2017).

How the values were obtained:
type I collagen (COL1A1) = test: COL1A1 level in UVB-damaged mouse skin by immunoblot; assay type: in vivo, nude mice; settings: 8-week UVB, then ointment plus microneedle for 2 weeks; untreated normal group set to 100%
Procedure: Skin tissues were homogenized in ice-cold lysis buffer containing 20 mM HEPES (pH 7.4), 150 mM NaCl, 1% SDS, 1 mM ethylenediamine tetraacetic acid (EDTA), 5 mM phenylmethanesulfonyl fluoride (PMSF), and 1 mM dithiothreitol (DTT), 1% Triton X-100, with freshly added protease inhibitor cocktail (Roche, Indianapolis, Ind.). Homogenates were then centrifuged at 12,000 g for 30 minutes at 4° C., and supernatants were then collected and stored at −70° C. Protein contents in lysates were determined using the Bradford assay. Whole cell lysates were prepared using the above lysis buffer. Aliquots of the lysates were then resolved on a SDS-PAGE and then electrotransferred to polyvinylidene difluoride (PVDF) membranes (Millipore, Bedford, Mass., USA) and processed for immunoblot analysis.
Antibodies used in the immunoblot study included anti-type I collagen 1A1 antibody (1:1000 dilution), anti-MMP-1 antibody (1:500 dilution) and anti-β-actin antibody (1:10000 dilution). Proteins of interest were detected using the appropriate IgG-HRP secondary antibody and ECL reagent (Amersham, Arlington Heights, Ill., USA). X-ray films were scanned on a Model GS-700 Imaging Densitometer (Bio-Rad Laboratories, Hercules, Calif.) and analyzed using Labworks 4.0 software. For quantification, blots from at least three independent experiments were used.
Six-week-old female nude mice (BALB/cAnN.Cg-Foxn1nu/CrlNarl) were irradiated with ultraviolet B (UVB) on the back 5 times a week for an eight-week period using a bank of five UVB lamps (model XL-1000B, Spectrolinker™ apparatus; emission peak: 312 nm), placed about 20 cm above the backs of the animals. During the UVB exposure, the mice were allowed to move freely within the cage. […] The level of BrdU- and vimentin-double positive cells was expressed as the percentage of BrdU- and vimentin-double positive cells per total vimentin-positive cells (the BrdU/Vimentin Labeling Index). […]

dermal fibroblasts [1] = test: Dermal fibroblast proliferation in photo damaged (UVB irradiated) skin in vivo, BrdU/vimentin staining; parameters: species or system nude mice (BALB/cAnN.Cg-Foxn1nu/CrlNarl); settings: for BrdU/Vimentin Labeling Index (%): after 8-week UVB, ointment plus microneedle twice a week for 2 weeks
Procedure: (§1) For animal study, BrdU was reconstituted in DMSO as stock (80 mM). 10 μl of BrdU stock mixed with 90 μl of PBS was intraperitoneally injected into mouse at 16 hours prior to euthanasia. Formalin-fixed, paraffin-embedded skin specimens were deparaffinized in xylene and rehydrated in a graded series of ethanol. The specimens were then exposed to 1 N HCl at room temperature for 1 hour for subsequent immunofluorescence study.
(§2) BrdU-labeled DNA was detected by polyclonal anti-BrdU antibody and rhodamine-conjugated donkey anti-rabbit IgG. Nuclei were counterstained with Hoechst 33258 (blue).
Six-week-old female nude mice (BALB/cAnN.Cg-Foxn1nu/CrlNarl) were irradiated with ultraviolet B (UVB) on the back 5 times a week for an eight-week period using a bank of five UVB lamps (model XL-1000B, Spectrolinker™ apparatus; emission peak: 312 nm), placed about 20 cm above the backs of the animals. During the UVB exposure, the mice were allowed to move freely within the cage. The irradiation intensity represented as the minimal erythe al dose (MED) was set at 1 MED during the first 2 weeks (60 mJ/cm^2), and was progressively elevated to 2 MED (120 mJ/cm^2) in the 3rd-4th week, to 3 MED (180 mJ/cm^2) in the 5th-6th week, and to 4 MED (240 mJ/cm^2) during the 7th-8th weeks of the experiment. After the 8-week UVB exposure, animals developed noticeable wrinkles and were subsequently randomly divided into the following 4 groups, with 3 mice in each group. In the UVB/vehicle, UVB/29-mer, UVB/20-mer, and UVB/18-mer groups, 350 μl of ointment (containing DMSO, 29-mer, 20-mer or 18-mer PEDF) was applied to the dorsal skin and then transdermal delivery was achieved by punching the ointment treated skin with the microneedle patch. Also, mice that were not subjected to UVB radiation were used as control (Normal). The ointment/microneedle treatment was given twice a week for 2 weeks. Mice were intraperitoneally given BrdU and euthanized at 16 hours after the last treatment. Skin sections were stained for vimentin and BrdU. The level of BrdU- and vimentin-double positive cells was expressed as the percentage of BrdU- and vimentin-double positive cells per total vimentin-positive cells (the BrdU/Vimentin Labeling Index).

dermal collagen = test: Dermal collagen content, Masson's trichrome stained collagen area in depilated mouse skin; assay type: in vivo, C57BL/6 mice; settings: for Collagen Area (fold): ointment plus microneedle (MN), twice a week for two weeks, day 14, normalized with Vehicle/MN; for collagen level (Masson's trichrome sections) versus vehicle/CT: ointment without microneedle treatment (CT)
Procedure: General histology was performed using hematoxylin and eosin (H&E) dye. Deparaffinized skin tissue sections were stained using Masson's Trichrome (Sigma-Aldrich, St. Louis, Mo.) according to the manufacturer's instructions; sections was examined and photographed by a Nikon Eclipse 80i light microscope (original magnification, ×400). For semi-quantitative analysis of collagen area, 10 fields from each slide were randomly selected under the light microscope, and the blue-stained area per entire area of the cross section (mm^2/mm^2) was measured using the Image-Pro Plus 4.5.1 system (Media Cybernetics).
Collagen is the major matrix component of the dermis and forms a tough fiber framework to provide the elastic property of the skin. This working example investigated whether the present PEDF peptides increase dermal collage content. Mice depilated as described in Example 1 were randomly assigned to several experimental groups and treated as follows. For each mouse, one side of the dorsal midline (about 2 cm^2) received 50 μl of ointment (the 29-mer, 20-mer, or DMSO-containing ointment) and a subsequent microneedle treatment; while the other side of the dorsal midline (about 2 cm^2) received 50 μl of the same ointment without the microneedle treatment. The treatment was given twice a week for two weeks, and the skin was left uncovered and harvested 14 days after the first treatment. Skin specimens were stained with Masson's trichrome stain (blue) for dermal collagen; representative images are provided in FIG. 2. The stained collagen area in the skin was quantified as taught above in the “Materials and Methods” section, and the results were normalized with the area of Vehicle/MN. The level of type I collagen (COL1A1) was investigated by the above-described immunoblot analysis, and the results were normalized with the level of the vehicle/CT group.

dermal fibroblasts [2] = test: Dermal fibroblast proliferation in vivo, BrdU/vimentin staining of skin sections; parameters: species or system mice; settings: normal skin, 16 hours after peptide/MN treatment
Procedure: as §1, §2
To investigate whether the transdermal delivery of the present PEDF peptides promotes the proliferation of dermal fibroblast in vivo, mice were intraperitoneally injected with BrdU and euthanized at 16 hours after the PEDF peptide/MN treatment or the vehicle/MN treatment. Skin sections were stained for vimentin (green) and BrdU (red). The level of BrdU- and vimentin-double positive cells was expressed as the percentage of BrdU- and vimentin-double positive cells per total vimentin-positive cells (the BrdU/Vimentin Labeling Index), and the results are summarized in Table 4.

dermal fibroblasts [3] = test: Vimentin-positive fibroblast count in dermis of treated mice; assay type: in vivo, C57BL/6 mice; settings: ointment plus microneedle (MN), specimens from Example 2
Procedure: Collagen is the major matrix component of the dermis and forms a tough fiber framework to provide the elastic property of the skin. This working example investigated whether the present PEDF peptides increase dermal collage content. Mice depilated as described in Example 1 were randomly assigned to several experimental groups and treated as follows. For each mouse, one side of the dorsal midline (about 2 cm^2) received 50 μl of ointment (the 29-mer, 20-mer, or DMSO-containing ointment) and a subsequent microneedle treatment; while the other side of the dorsal midline (about 2 cm^2) received 50 μl of the same ointment without the microneedle treatment. The treatment was given twice a week for two weeks, and the skin was left uncovered and harvested 14 days after the first treatment. Skin specimens were stained with Masson's trichrome stain (blue) for dermal collagen; representative images are provided in FIG. 2. The stained collagen area in the skin was quantified as taught above in the “Materials and Methods” section, and the results were normalized with the area of Vehicle/MN. […]
Specimens from Example 2, above, were also stained for the fibroblast marker, vimentin, and the vimentin-positive cells were counted under microscope.

[4] = after UVB exposure, transdermal delivery

| Substance | COL1A1 Level (%) (type I collagen (COL1A1)) | BrdU/Vimentin Labeling Index (%) (dermal fibroblasts [1]) | effect on dermal fibroblast proliferation in UVB-damaged skin (dermal fibroblasts [1]; [4]) | Collagen Area (fold) (dermal collagen) | collagen level (Masson's trichrome sections) versus vehicle/CT (dermal collagen) | BrdU/Vimentin Labeling Index (%) (dermal fibroblasts [2]) | proliferative activity of dermal fibroblasts relative to UVB/vehicle group (dermal fibroblasts [1]; [4]) | Vimentin+ Cells per mm^2 (dermal fibroblasts [3]) [Cells per mm^2] |
| --- | --- | --- | --- | --- | --- | --- | --- | --- |
| EQRTESIIHRALYYDLIS [18-mer] | 45.0 ± 3.8 | 2.0 ± 0.8 | failed to promote the dermal fibroblast proliferation |  |  |  |  |  |
| Ac-SLGAEQRTESIIHRALYYDLISSPDIHGT-NH2 [29-mer] | 91.0 ± 5.0 | 5.2 ± 1.9 |  | 1.7 ± 0.14 | no significant difference | 16.9 ± 1.9 | about 2.5 fold | 1688 ± 197 |
| SLGAEQRTESIIHRALYYDL [20-mer, synthetic peptide corresponding to residues 93-112 of human PEDF] | 92.3 ± 9.1 | 5.9 ± 1.3 |  | 1.6 ± 0.11 | no significant difference | 17.3 ± 3.2 | about 2.5 fold | 1745 ± 143 |
